Source: US7659240B2, “Mucin immobilized chromatography” (Vertex Pharmaceuticals Incorporated, priority 2002, dated 2010)
Values joined by “and” are separate entries in the source; they are usually repeats but may differ in a detail not shown here. Identical values can stand only once. Counter-ions that a name gives are not always drawn.

Experiments:
[1] = tested on: mucin immobilized to IAM.PC.DD2; test: HPLC on MIC column (2:1 mucin to PC IAM particles): retention time, k′MIC, derived Km and Peff MIC; settings: for k′MIC / Retention Time: MIC column 2:1 mucin:IAM, MPS pH 7.4; for Retention Time: isocratic 0.3 ml/min; for Dm: membrane diffusion coefficient calculated from molecular weight
Description: [formula] where Dm is the membrane diffusion coefficient of the solute, Km is the membrane equilibrium constant, and L is the membrane thickness (Stein, W., Transport and Diffusion Across Cell Membranes, Academic Press, Orlando, Fla. (1986)). […] Since molecular weight, MW, is proportional to molecular size, Dm may also written as,
[formula] Thus, Dm can be calculated from the molecular weight. Furthermore, Km is calculated by the following equation, Km−(Vm/Vs)k′, [4] where Vm is the volume of the mobile phase, Vs is the internal volume of the stationary phase, and k′ is the partition ratio (Pidgeon and Ong, Chemtech. June, 38-48 (1995)). The partition ratio is determined by the equation, k′−(tr−to)/to, [5] where tr is the retention time of the drug and to is the void volume of the column. Both tr and to can be experimentally determined in order to obtain k′.
Equation 2 can be used to determine Km for a given MIC medium. Both Dm and L are known from the discussion above, and Peff can be calculated for various drugs having known in vivo absorption. For example, a number of drug permeability coefficients, Peff, derived from in vivo experiments are listed in literature. […] See Example 5 below.

[2] = tested on: mucin immobilized to PC IAM particles; test: pH and mucin layer thickness dependence of partition ratio on MIC columns (1:2 and 2:1); settings: for (1:2) k′ (pH 3) / (1:2) k′ (pH 5) / (1:2) k′ (pH 7): column 1:2 mucin to PC IAM, 0.32 μm mucin layer; for (1:2) k′ (pH 3) / (2:1) k′ (pH 3): mobile phase pH 3; for (1:2) k′ (pH 5) / (2:1) k′ (pH 5): mobile phase pH 5; for (1:2) k′ (pH 7) / (2:1) k′ (pH 7): mobile phase pH 7; for (2:1) k′ (pH 3) / (2:1) k′ (pH 5) / (2:1) k′ (pH 7): column 2:1 mucin to PC IAM, 0.36 μm mucin layer

k′MIC [1]	Retention Time [1]	Dm [1]	(1:2) k′ (pH 3) [2]	(1:2) k′ (pH 5) [2]	(1:2) k′ (pH 7) [2]	(2:1) k′ (pH 3) [2]	(2:1) k′ (pH 5) [2]	(2:1) k′ (pH 7) [2]	δ = log k′MIC − log k′IAM [1]	log k′MIC ([1]; MIC 2:1)	Compound	K′MIC ([1]; MIC 2:1, Table 5)
33.5714	2.4	0.0044	25.67	15.67	25.67	20.43	20.43	24.00	–	–	Nc1nc2c(ncn2COCCO)c(=O)[nH]1 [Acyclovir]	–
–	–	–	10.67	29.00	12.33	none	13.29	57.33	–	–	CN(Cc1cnc2nc(N)nc(N)c2n1)c1ccc(C(=O)N[C@@H](CCC(=O)O)C(=O)O)cc1 [amethopterin]	–
–	–	–	none	none	none	none	none	none	–	–	NCC(=O)O [glycine]	–
–	–	0.0039 and 0.0040	25.67	29.00	44.00	17.57	23.29	35.67	–	–	CN/C(=N/CCSCc1nc[nH]c1C)NC#N [Cimetidine]	–
–	–	–	none	30.67	30.67	none	19.00	34.00	–	–	COc1ccc(Cl)cc1C(=O)NCCc1ccc(S(=O)(=O)NC(=O)NC2CCCCC2)cc1 [glybenclamide]	–
53.2857	3.8	0.0027	24.00	24.00	32.33	79.00	90.43	132.33	–	–	CC(CCc1ccccc1)NCC(O)c1ccc(O)c(C(N)=O)c1 (stereo not shown) [Labetalol]	–
36.1429	2.6	0.0023	–	–	–	–	–	–	–	–	CC(C)(C)NC[C@H](O)COc1nsnc1N1CCOCC1 [Timolol]	–
54.7143	3.9	0.0032	25.67	30.67	39.00	21.86	24.71	19.00	0.59	1.74	CC(=O)CC(c1ccccc1)c1c(O)c2ccccc2oc1=O (stereo not shown) [Warfarin]	–
53.2857	3.8	0.0044	–	–	–	–	–	–	–	–	CC(C)Cc1ccc(C(C)C(=O)O)cc1 (stereo not shown) [Ibuprofen]	–
–	–	–	none	none	none	none	none	none	–	–	CC(C)C[C@H](N)C(=O)O [leucine]	–
33.4286	2.4	0.0055	–	–	–	–	–	–	–	–	OC[C@@H](O)[C@@H](O)[C@H](O)[C@H](O)CO [Mannitol]	–
–	–	–	30.67	44.00	110.67	23.29	34.71	95.67	–	–	O=C(CCCN1CCC(O)(c2ccc(Cl)cc2)CC1)c1ccc(F)cc1 [haloperidol]	–

Compound	k′MIC [1]	Retention Time [1]	Dm [1]	(1:2) k′ (pH 3) [2]	(1:2) k′ (pH 5) [2]	(1:2) k′ (pH 7) [2]	(2:1) k′ (pH 3) [2]	(2:1) k′ (pH 5) [2]	(2:1) k′ (pH 7) [2]	δ = log k′MIC − log k′IAM [1]	log k′MIC ([1]; MIC 2:1)	K′MIC ([1]; MIC 2:1, Table 5)
COc1ccc(CCN(C)CCCC(C#N)(c2ccc(OC)c(OC)c2)C(C)C)cc1OC (stereo not shown) [Verapamil]	71.8571	5.1	0.0020	–	–	–	–	–	–	–	–	71.86
C=C[C@H]1C[N@@]2CC[C@H]1C[C@@H]2[C@@H](O)c1ccnc2ccc(OC)cc12 [quinidine, HCl]	70.4286	5.0	0.0026	–	–	–	–	–	–	–	–	–
CC(COc1ccccc1)N(CCCl)Cc1ccccc1 (stereo not shown) [Phenoxybenzamine HCl]	–	–	–	20.67	29.00	29.00	20.43	17.57	15.67	–	–	–
